Where a SMILES comes first, the peptide text is derived from it. Where no end group is shown, it is not given here. [ ]: non-standard residue; d: D form.
What was measured:
NK1R = NK1R (Rattus norvegicus, UniProt P14600); assay: SP-stimulated Ca2+ signaling in HEK-NK1R cells, antagonist mode; type: cell-based; parameters: Full length and truncated 6312 rat HA-NK1R have been described; expressed in transfected cells; host or cells: HEK293 (transient)
Protocol: [Ca^2+]i was measured as described (Jensen, D. D. et al., J Biol Chem, 2014, 289, 20283-20294). HEK293 cells transiently expressing HA-NK1R or HA-CLR/Myc-RAMP1 were loaded with Fura2-AM (2 μM).

[1] = Stability in human cerebrospinal fluid; type: in vitro ADME; conditions: Example 2, expected
Protocol: (§1) To assess stability in cerebrospinal fluid, spantide or Compound 1 (10 μg/ml) was incubated in human cerebrospinal fluid (0-4 h, 37° C.), and then snap frozen. Proteins were precipitated using ACN. To assess stability in the spinal cord, spantide or Compound 1 was injected intrathecally to mice (10 μM, 5 μl, L3/L4). After 3 hours, a spinal cord segment 5 mm on either side the injection site was removed and snap frozen. Tissues were crushed with a glass rod in a mixture of methanol (30 μl) and EDTA/KF (60 μl, 0.1 M EDTA, 4 g/l KF), vortexed and centrifuged to remove lipids. Peptides were extracted from the pellet with 0.5% formic acid in 75% ACN/H2O (100 μl). Samples were analyzed assayed by LC/MS using a Waters Xevo TQ or TQD triple quadrupole mass spectrometer coupled to a Waters UPLC. Peptides were separated by HPLC (Supelco Ascentis Express Peptide ES C18 column, 50×2.1 mm, 2.7 μm) with 0.05% formic acid in H2O and ACN as solvents. Peptides were quantified by comparison to calibration standards (50-50,000 ng/ml).

[2] = Stability in the spinal cord after intrathecal injection to mice; type: in vivo, mouse; conditions: 10 μM, 5 μl, spinal cord after 3 hours
Protocol: as §1

[3] = tested on: NK1R-positive neurons in lamina I of the dorsal horn; assay: Cell-attached patch clamp recordings in rat spinal cord slices; type: cell-based; conditions: SP 1 μM, 2 min
Protocol: To evaluate whether NK1R endosomal signaling mediates this sustained activation, cell-attached patch clamp recordings were made from NKiR-positive neurons in lamina I of the dorsal horn in slices of rat spinal cord. […] These findings support a role for NK1R endocytosis in persistent neuronal excitation.
Parasagittal slices (340-400 μm) were prepared using a vibratome from the lumbar region of the rat spinal cord in ice-cold sucrose-based artificial CSF (sACSF) (mM: 100 sucrose, 63 NaCl, 2.5 KCl, 1.2 NaH2PO4, 1.2 MgCl2, 25 glucose, 25 NaHCO3; 95% O2/5% CO2). Slices were transferred to N-Methyl-D-Glucamine (NMDG)-based recovery ACSF (rACSF) (mM: 93 NMDG, 93 HCl, 2.5 KCl, 1.2 NaH2PO4, 30 NaHCO3, 20 HEPES, 25 glucose, 5 Na ascorbate, 2 thiourea, 3 Na pyruvate, 10 MgSO4, 0.5 CaCl2; 95% O2/5% CO2, 15 min, 34° C.). Slices were transferred to normal ACSF (mM: 125 NaCl, 2.5 KCl, 1.25 NaH2PO4, 1.2 MgCl2, 2.5 CaCl2, 25 glucose, 11 NaHCO3; 95% O2/5% CO2) containing 10 μM MK-801 (45 min, 34° C.), then maintained at RT.
Slices of rat spinal cord were transferred to a recording chamber and superfused with normal ACSF (2 ml·min^−1, 36° C.). […] PS2 was not soluble in the low concentrations of DMSO required for electrophysiology. Large, NKiR-positive, presumed nociceptive lamina I neurons were visually identified as described (Imlach, W. L., et al., Molecular Pharmacology, 2015, 88, 460-428). Spontaneous currents were recorded in cell-attached configuration (Multiclamp 700B, Molecular Devices, Sunnyvale, Calif.), sampled at 10 kHz, high pass filtered at 1 Hz, and capacitatively coupled action potential events were analyzed using Axograph X, V 1.4.4 (Axograph). Patch electrodes (resistance 2.5-3.5 MQ) contained KMES-based internal solution (mM: 105 KMES, 20 NaCl, 5 HEPES, 10 BAPTA, 1.5 MgCl2, 4 MgATP, 0.4 NaGTP, 0.1% biocytin; 285-295 mosmol·l^−1) to facilitate subsequent recordings of action potential properties in whole-cell configuration. Recordings were made in the presence of CNQX (6-cyano-7-nitroquinoxaline-2,3-dione) (10 μM; AMPA/kainate receptor antagonist), picrotoxin (100 μM; GABAA receptor antagonist), strychnine (0.5 μM; glycine and acetylcholine receptor antagonist), and AP5 ((2R)-amino-5-phosphonovaleric acid; (2R)-amino-5-phosphonopentanoate) (100 μM; NMDA receptor antagonist) to minimize presynaptic influences on action potential properties. […] Recordings were sampled at 10 kHz and filtered with a high pass filter at 1 Hz and firing rate was measured in two-minute interval bins. At the end of each cell-attached recording, whole-cell recordings were made in current-clamp mode to confirm retention of normal action potential firing. Data were only included in the analysis if cells had action potential amplitudes that were ≥50 mV above threshold to ensure viable neurons were included. Cells were filled with biocytin and sections were processed to confirm NK1R expression by immunofluorescence. […] The firing time was determined as the duration of the response to last action potential. To assess synaptic transmission, whole-cell configuration recordings were made under control conditions or after exposure to Dy4 or Dy4 inact; a bipolar stimulating electrode was placed at the dorsal root entry zone, and electrically-evoked excitatory postsynaptic currents recorded as described (Imlach, W. L., et al., Molecular Pharmacology, 2015, 88, 460-428).

Gαq = assay: BRET of Gαq activation and trafficking in HEK293 cells; type: cell-based; conditions: SP 0.1-10 nM, 15 min
Protocol: Since PKC and cAMP signaling via GPCRs depends on heterotrimeric G-proteins, the capacity of SP to activate G-proteins in endosomes of HEK293 cells was examined. BRET was used to determine the proximity of the NK1R and Gαq to Rab5a and Gγ2. SP (0.1-10 nM) decreased NK1R-RLuc8/KRas-Venus BRET, which mirrored the increase in NK1R-RLuc8/Rab5a-Venus BRET (FIG. 3A, B). […] Immunofluorescence and super-resolution microscopy were used to determine whether Gαq co-localized with the NK1R at the plasma membrane or in endosomes of HEK-NK1R cells. After incubation with SP (10 nM) at 4° C., NK1R immunoreactivity (NK1R-IR) and Gαq-IR were colocalized at the plasma membrane. After washing and warming to 37° C. for 15 min, NK1R-IR and Gαq-IR were co-localized with early endosomal antigen 1 (EEA1) (data not shown). Thus, SP activates this G protein complex by its dissociation and recruits Gαq to endosomes.
HEK293 cells were transfected with the following cDNAs: 1 μg NK1R-RLuc8 or 1 μg CLR-RLuc8+1 μg Myc-RAMP1+4 μg KRas-Venus, 4 μg Rab5a-Venus, 4 μg βarr1-YFP, or 4 μg βarr2-YFP; or 1 μg NK1R+0.5 μg Gαq-RLuc8+1 μg Gβ1+4 μg Gγ2-Venus; or 1 μg NK1R+0.5 μg Gαq-RLuc8+1 μg Gβ1+1 μg Gγ2+4 μg Rab5a-Venus. […] BRET ratios were determined using a microplate reader LUMIstar Omega (BMG LabTech) before and after challenge with SP (0.1-10 nM) or vehicle (dH2O).

Sequence of NK1R (P14600 whole entry, the tested form may be a part): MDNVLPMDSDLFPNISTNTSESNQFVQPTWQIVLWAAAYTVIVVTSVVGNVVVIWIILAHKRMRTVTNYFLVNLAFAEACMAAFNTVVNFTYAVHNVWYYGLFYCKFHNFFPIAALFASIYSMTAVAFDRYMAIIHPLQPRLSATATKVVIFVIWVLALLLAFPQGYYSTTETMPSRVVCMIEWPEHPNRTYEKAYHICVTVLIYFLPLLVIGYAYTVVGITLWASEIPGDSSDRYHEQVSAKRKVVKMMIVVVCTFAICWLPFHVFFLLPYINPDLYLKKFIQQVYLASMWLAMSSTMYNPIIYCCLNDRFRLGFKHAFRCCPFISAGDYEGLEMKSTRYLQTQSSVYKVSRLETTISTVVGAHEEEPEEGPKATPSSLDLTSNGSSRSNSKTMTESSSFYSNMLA

With CC(C)C[C@H](NC(=O)[C@H](CC(C)C)NC(=O)[C@@H](Cc1c[nH]c2ccccc12)NC(=O)[C@H](Cc1ccccc1)NC(=O)[C@@H](Cc1c[nH]c2ccccc12)NC(=O)[C@H](CCC(N)=O)NC(=O)[C@H](CCC(N)=O)NC(=O)[C@@H]1CCCN1C(=O)[C@H](CCCCN)NC(=O)[C@@H]1CCCN1C(=O)[C@H](N)CCCN=C(N)N)C(N)=O [spantide, ^DArg-Pro-Lys-Pro-Gln-Gln-^DTrp-Phe-^DTrp-Leu-Leu-NH2] (H-[dR]PKPQQ[dW]F[dW]LL-NH2) the IC50 (NK1R) was 5.89 nM, the “time stable in human CSF” value [1] was over 4 h and the “stability after intrathecal injection to mice” value [2] was “extensively metabolized”.

With “SP: substance P, NK1R agonist used as stimulus (RPKPQQFFGLM-NH2; ends and bridges not checked; UniProt P20366 58-68, looked up)” the “firing of action potentials” value [3] was “triggered a rapid onset firing of action potentials that was sustained after washout”, the “Gαq-RLuc8/Gγ2-Venus BRET” value (Gαq) was “decreased Gαq-RLuc8/Gγ2-Venus BRET” and the “Gαq-RLuc8/Rab5a-Venus BRET” value (Gαq) was “increased Gαq-RLuc8/Rab5a-Venus BRET”.

— US11324832B2, “Tripartite modulators of endosomal G protein-coupled receptors” (Endosome Therapeutics, Inc., priority 2015, dated 2022)
